This is an account of results in patent US11066443B2 (Hoffmann-La Roche Inc., priority 2017, dated 2021).

One assay concerns P. aeruginosa NCTC11454. Put plainly: Antimicrobial susceptibility testing: 50% growth inhibitory concentration (IC50) determination. As to conditions: Pseudomonas aeruginosa, Iso-Sensitest broth, OD 600 nm every 20 minutes over 16h, growth inhibition during logarithmic growth. Format: cell-based. In short, it runs like this: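 Twofold dilutions (e.g. 50–0.097 μM final) in Iso-Sensitest broth were inoculated with P. aeruginosa NCTC11454 at ~5×10^5 CFU/mL and incubated at 35±2 °C. OD600 was read every 20 min over 16 h. IC50 was derived from growth inhibition in the logarithmic phase.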

The next assay concerns P. aeruginosa ATCC27853. Put plainly: Antimicrobial susceptibility testing: microbroth minimum inhibitory concentration (MIC) determination. Format: cell-based. The note with it: Pseudomonas aeruginosa, CLSI microbroth dilution in CAMHB, read after 20 hours, lowest concentration inhibiting >=80% of growth. Here is the method: The in vitro antimicrobial activity of the compounds was determined through microbroth minimum inhibitory concentration (MIC) methodology performed according to the Clinical and Laboratory Standard Institute guidelines (CLSI—M07-A9 Jan. 2012. Methods for Dilution Antimicrobial Susceptibility Tests for Bacteria That Grow Aerobically; Approved Standard—Ninth Edition, Clinical and Laboratory Standards Institue, Wayne/PA, US and the CLSI—M100-S24 Jan. 2014. Performance Standards for Antimicrobial Susceptibility Testing; Approved Standard—Fourth Informational Supplement, Clinical and Laboratory Standards Institue, Wayne/PA, US).
The compound stock solution was freshly prepared at 10× the required top concentration for the MIC determination, i.e. at 1280 mg/L, by reconstitution of the dry compound in 50:50 water:DMSO.
Polystyrene non-treated 96 wells microtiter plates were used for preparing panel containing compound serial twofold diluted at two times the final testing concentration (e.g. range from 64 to 0.06 μg/ml) in cation adjusted Mueller Hinton broth medium (CAMHB).
Inoculum was prepared by the “direct colony suspension method”. Colonies of P. aeruginosa ATCC27853 or clinical isolates were suspended in saline solution and adjusted to 0.5 McFarland, diluted 100 times in CAMHB broth and 50 μl added to each well (final concentration of cells ˜5×10^(5) CFU/ml and Final volume/well of 100 μl). Microtiter plates were sealed and incubated at 35±2° C.
MICs values were read after 20 hours of incubation and recorded as the lowest concentration of the antimicrobial that inhibits more or equal to 80% of growth of the organism as detected by the unaided eye and using a microtiter plate optical density reader (OD 600 nm).
Table 1 provides the minimum inhibitory concentration (MIC) in microgram per milliliter of the compounds of present invention obtained against the P. aeruginosa ATCC27853 (Table 1).
(In general: Broth dilution looks for growth in wells or tubes with falling amounts of substance.)

Each structure is given as a SMILES string. ≈ marks a conversion by molar mass, not a printed value. Some results are limits rather than exact numbers.

For orientation: IC50 means the point on the concentration scale where inhibition reaches its midpoint. A lower IC50 goes with higher potency. Usually MIC stands for the smallest concentration in the dilution series that meets the test's criterion for growth inhibition. A lower MIC goes with inhibition by little substance. In the assay with P. aeruginosa NCTC11454, `CN1C(=O)[C@H](CCCCN)NC(=O)[C@H](CCCN)NCc2ccccc2Sc2cc(Cl)ccc2CNC(=O)[C@@H]1Cc1c[nH]c2ccccc12` [Example 2, (12S,15S,18S)-15-(4-Amino-butyl)-18-(3-amino-propyl)-5-chloro-12-(1H-indol-3-ylmethyl)-13-methyl-2-thia-10,13,16,19-tetraaza-tricyclo[19.4.0.0*3,8*]pentacosa-1(21),3,5,7,22,24-hexaene-11,14,17-trione] came in with an IC50 of over 50 µM. This molecule also registered an MIC against P. aeruginosa ATCC27853 of 32 µg/mL (≈ 45.4 µM).

`CN1C(=O)[C@H](CCCCN)NC(=O)[C@H](CCCN)NCc2ccccc2Sc2c(Cl)cccc2CNC(=O)[C@@H]1Cc1c[nH]c2ccccc12` [Example 3, (12S,15S,18S)-15-(4-Amino-butyl)-18-(3-amino-propyl)-4-chloro-12-(1H-indol-3-ylmethyl)-13-methyl-2-thia-10,13,16,19-tetraaza-tricyclo[19.4.0.0*3,8*]pentacosa-1(21),3,5,7,22,24-hexaene-11,14,17-trione] showed an MIC against P. aeruginosa ATCC27853 of over 64 µg/mL.

As to `CN1C(=O)[C@H](CCCCN)NC(=O)[C@H](CCCN)NCc2ccccc2Sc2c(Cl)cc(C(F)(F)F)cc2CNC(=O)[C@@H]1Cc1c[nH]c2ccccc12` [Example 11, (12S,15S,18S)-15-(4-Amino-butyl)-18-(3-amino-propyl)-4-chloro-12-(1H-indol-3-ylmethyl)-13-methyl-6-trifluoromethyl-2-thia-10,13,16,19-tetraaza-tricyclo[19.4.0.0*3,8*]pentacosa-1(25),3,5,7,21,23-hexaene-11,14,17-trione], inhibition of growth in the assay with P. aeruginosa ATCC27853 (MIC) required 16 µg/mL (≈ 20.7 µM).

In turn, `CN1C(=O)[C@H](CCCCN)NC(=O)[C@H](CCCN)NCc2cc(F)ccc2Sc2c(Cl)cc(Cl)cc2CNC(=O)[C@@H]1Cc1c[nH]c2ccccc12` [Example 12, (12S,15S,18S)-15-(4-Amino-butyl)-18-(3-amino-propyl)-4,6-dichloro-23-fluoro-12-(1H-indol-3-ylmethyl)-13-methyl-2-thia-10,13,16,19-tetraaza-tricyclo[19.4.0.0*3,8*]pentacosa-1(25),3,5,7,21,23-hexaene-11,14,17-trione] showed an MIC in the assay with P. aeruginosa ATCC27853 of 32 µg/mL (≈ 42.3 µM).

`CN1C(=O)[C@H](CCCCN)NC(=O)[C@H](CCCN)NCc2ccccc2Sc2c(cc(Cl)cc2C(F)(F)F)CNC(=O)[C@@H]1Cc1c[nH]c2ccccc12` [Example 13, (12S,15S,18S)-15-(4-Amino-butyl)-18-(3-amino-propyl)-6-chloro-12-(1H-indol-3-ylmethyl)-13-methyl-4-trifluoromethyl-2-thia-10,13,16,19-tetraaza-tricyclo[19.4.0.0*3,8*]pentacosa-1(25),3,5,7,21,23-hexaene-11,14,17-trione] showed an MIC in the assay with P. aeruginosa ATCC27853 of 16 µg/mL (≈ 20.7 µM).

On to `Cc1[nH]c2ccccc2c1C[C@H]1C(=O)NCc2cc(Cl)ccc2Sc2ccccc2CN[C@@H](CCCN)C(=O)N[C@@H](CCCCN)C(=O)N1C` [Example 15, (12S,15S,18S)-15-(4-Amino-butyl)-18-(3-amino-propyl)-6-chloro-13-methyl-12-(2-methyl-1H-indol-3-ylmethyl)-2-thia-10,13,16,19-tetraaza-tricyclo[19.4.0.0*3,8*]pentacosa-1(21),3,5,7,22,24-hexaene-1,14,17-trione], for which, in the assay with P. aeruginosa NCTC11454, the IC50 came out at 32 µM. For the same molecule, the MIC with P. aeruginosa ATCC27853 was 32 µg/mL (≈ 44.5 µM).

`Cc1cccc2c1Sc1ccccc1CN[C@@H](CCCN)C(=O)N[C@@H](CCCCN)C(=O)N(C)[C@@H](Cc1c(C)[nH]c3ccccc13)C(=O)NC2` [Example 16, (12S,15S,18S)-15-(4-Amino-butyl)-18-(3-amino-propyl)-4,13-dimethyl-12-(2-methyl-1H-indol-3-ylmethyl)-2-thia-10,13,16,19-tetraaza-tricyclo[19.4.0.0*3,8*]pentacosa-1(21),3,5,7,22,24-hexaene-11,14,17-trione] yielded an MIC with P. aeruginosa ATCC27853 of 32 µg/mL (≈ 45.8 µM).

Molecule `Cc1[nH]c2ccccc2c1C[C@H]1C(=O)NCc2cc(Cl)cc(Cl)c2Sc2ccccc2CN[C@@H](CCCN)C(=O)N[C@@H](CCCCN)C(=O)N1C` [Example 17, (12S,15S,18S)-15-(4-Amino-butyl)-18-(3-amino-propyl)-4,6-dichloro-13-methyl-12-(2-methyl-1H-indol-3-ylmethyl)-2-thia-10,13,16,19-tetraaza-tricyclo[19.4.0.0*3,8*]pentacosa-1(21),3,5,7,22,24-hexaene-1,14,17-trione] registered an MIC against P. aeruginosa ATCC27853 of 32 µg/mL (≈ 42.5 µM).

Consider `CCc1ccc2c(c1)CNC(=O)[C@H](Cc1c[nH]c3ccccc13)N(C)C(=O)[C@H](CCCCN)NC(=O)[C@H](CCCN)NCc1ccccc1S2` [Example 18, (12S,15S,18S)-15-(4-Amino-butyl)-18-(3-amino-propyl)-6-ethyl-12-(1H-indol-3-ylmethyl)-13-methyl-2-thia-10,13,16,19-tetraaza-tricyclo[19.4.0.0*3,8*]pentacosa-1(25),3,5,7,21,23-hexaene-11,14,17-trione], for which the lowest concentration to inhibit growth in the assay with P. aeruginosa ATCC27853 (MIC) was 32 µg/mL (≈ 45.8 µM).

In the assay on P. aeruginosa ATCC27853, `CN1C(=O)[C@H](CCCCN)NC(=O)[C@H](CCCN)NCc2ccccc2Sc2ccc(-c3ccccc3)cc2CNC(=O)[C@@H]1Cc1c[nH]c2ccccc12` [Example 19, (12S,15S,18S)-15-(4-Amino-butyl)-18-(3-amino-propyl)-12-(1H-indol-3-ylmethyl)-13-methyl-6-phenyl-2-thia-10,13,16,19-tetraaza-tricyclo[19.4.0.0*3,8*]pentacosa-1(25),3,5,7,21,23-hexaene-11,14,17-trione] had an MIC of 32 µg/mL (≈ 42.9 µM).

In turn, `CN1C(=O)[C@H](CCCCN)NC(=O)[C@H](CCCN)NCc2ccccc2Sc2ccc(C(C)(C)C)cc2CNC(=O)[C@@H]1Cc1c[nH]c2ccccc12` [Example 20, (12S,15S,18S)-15-(4-Amino-butyl)-18-(3-amino-propyl)-6-tert-butyl-12-(1H-indol-3-ylmethyl)-13-methyl-2-thia-10,13,16,19-tetraaza-tricyclo[19.4.0.0*3,8*]pentacosa-1(25),3,5,7,21,23-hexaene-11,14,17-trione] had an MIC against P. aeruginosa ATCC27853 of 32 µg/mL (≈ 44.1 µM).

In the assay on P. aeruginosa ATCC27853, `CC(C)c1ccc2c(c1)CNC(=O)[C@H](Cc1c[nH]c3ccccc13)N(C)C(=O)[C@H](CCCCN)NC(=O)[C@H](CCCN)NCc1ccccc1S2` [Example 21, (12S,15S,18S)-15-(4-Amino-butyl)-18-(3-amino-propyl)-12-(1H-indol-3-ylmethyl)-6-isopropyl-13-methyl-2-thia-10,13,16,19-tetraaza-tricyclo[19.4.0.0*3,8*]pentacosa-1(25),3,5,7,21,23-hexaene-11,14,17-trione] came in with an MIC of 32 µg/mL (≈ 44.9 µM).

Consider `CN1C(=O)[C@H](CCCCN)NC(=O)[C@H](CCCN)NCc2cccnc2Sc2c(cc(C(F)(F)F)cc2C(F)(F)F)CNC(=O)[C@@H]1Cc1c[nH]c2ccccc12` [Example 23, (11S,14S,17S)-14-(4-Amino-butyl)-11-(3-amino-propyl)-17-(1H-indol-3-ylmethyl)-16-methyl-23,25-bis-trifluoromethyl-2-thia-4,10,13,16,19-pentaaza-tricyclo[19.4.0.0*3,8*]pentacosa-1(25),3,5,7,21,23-hexaene-12,15,18-trione], for which, in the assay with P. aeruginosa ATCC27853, the MIC is 32 µg/mL (≈ 39.7 µM).

As for `CN1C(=O)[C@H](CCCCN)NC(=O)[C@H](CCCN)NCc2ccccc2Sc2c(cc(-c3ccccc3)cc2C(F)(F)F)CNC(=O)[C@@H]1Cc1c[nH]c2ccccc12` [Example 28, (12S,15S,18S)-15-(4-Amino-butyl)-18-(3-amino-propyl)-12-(1H-indol-3-ylmethyl)-13-methyl-6-phenyl-4-trifluoromethyl-2-thia-10,13,16,19-tetraaza-tricyclo[19.4.0.0*3,8*]pentacosa-1(25),3,5,7,21,23-hexaene-11,14,17-trione], in the assay on P. aeruginosa NCTC11454, the midpoint of inhibition, the IC50, lay at 8.8 µM. Besides, in the assay with P. aeruginosa ATCC27853, the lowest concentration to inhibit growth (MIC) was 8 µg/mL (≈ 9.83 µM).

Consider `CN1C(=O)[C@H](CCCCN)NC(=O)[C@H](CCCN)NCc2cccnc2Sc2c(Cl)ccc(-c3ccccc3)c2CNC(=O)[C@@H]1Cc1c[nH]c2ccccc12` [Example 29, (11S,14S,17S)-14-(4-Amino-butyl)-11-(3-amino-propyl)-25-chloro-17-(1H-indol-3-ylmethyl)-16-methyl-22-phenyl-2-thia-4,10,13,16,19-pentaaza-tricyclo[19.4.0.0*3,8*]pentacosa-1(25),3(8),4,6,21,23-hexaene-12,15,18-trione], for which, in the assay with P. aeruginosa ATCC27853, the MIC turned out to be 32 µg/mL (≈ 41 µM).

`CN1C(=O)[C@H](CCCCN)NC(=O)[C@H](CCCN)NCc2ccccc2Sc2c(Cl)cc(-c3cn(C)cn3)cc2CNC(=O)[C@@H]1Cc1c[nH]c2ccccc12` [Example 37, (12S,15S,18S)-15-(4-Amino-butyl)-18-(3-amino-propyl)-4-chloro-12-(1H-indol-3-ylmethyl)-13-methyl-6-(1-methyl-1H-imidazol-4-yl)-2-thia-10,13,16,19-tetraaza-tricyclo[19.4.0.0*3,8*]pentacosa-1(25),3,5,7,21,23-hexaene-11,14,17-trione] gave an IC50 in the assay on P. aeruginosa NCTC11454 of 95.7 µM. In the assay with P. aeruginosa ATCC27853, the MIC amounted to 32 µg/mL (≈ 40.8 µM).
